System: MV-4-11 cells
Experiment: Gene expression microarray analysis (Affymetrix PrimeView) and GSEA
Type: cell-based, human
Set-up: RFU PODN (11730768_x_at) / Fold change /veh PODN (11730768_x_at) / RFU LINC00158 (11744669_a_at) / Fold change /veh LINC00158 (11744669_a_at) / RFU DUSP10 (11751237_a_at) / Fold change /veh DUSP10 (11751237_a_at) / RFU ID3 (11757404_x_at) / Fold change /veh ID3 (11757404_x_at) / RFU PLEKHG5 (11737974_s_at) / Fold change /veh PLEKHG5 (11737974_s_at) / RFU LRRC4B (11730491_at) / Fold change /veh LRRC4B (11730491_at) / RFU GIMAP4 (11747438_a_at) / Fold change /veh GIMAP4 (11747438_a_at) / RFU KRT8 (11758183_x_at) / Fold change /veh KRT8 (11758183_x_at) / RFU CNN1 (11734310_a_at) / Fold change /veh CNN1 (11734310_a_at) / RFU VPS37D (11726825_at) / Fold change /veh VPS37D (11726825_at) / RFU C10orf10 (11716522_x_at) / Fold change /veh C10orf10 (11716522_x_at) / RFU KIR2DL2 /// KIR2DL4 /// KIR2DL5A /// KIR2DL5B /// KIR2DS1 /// KIR2DS2 /// KIR2DS3 /// KIR2DS4 /// KIR3DL3 /// KIR3DL3 /// KIR3DS1 (11738374_at) / Fold change /veh KIR2DL2 /// KIR2DL4 /// KIR2DL5A /// KIR2DL5B /// KIR2DS1 /// KIR2DS2 /// KIR2DS3 /// KIR2DS4 /// KIR3DL3 /// KIR3DL3 /// KIR3DS1 (11738374_at) / RFU C1QL1 (11718748_at) / Fold change /veh C1QL1 (11718748_at) / RFU TMPRSS4 (11747572_a_at) / Fold change /veh TMPRSS4 (11747572_a_at) / RFU HAMP (11756126_x_at) / Fold change /veh HAMP (11756126_x_at) / RFU RNFT2 (11725882_a_at) / Fold change /veh RNFT2 (11725882_a_at) / RFU NR4A2 (11747474_a_at) / Fold change /veh NR4A2 (11747474_a_at) / RFU ABCC12 (11746883_a_at) / Fold change /veh ABCC12 (11746883_a_at) / RFU TMEM136 (11760407_x_at) / Fold change /veh TMEM136 (11760407_x_at) / RFU CLDN22 /// WWC2 (11732394_at) / Fold change /veh CLDN22 /// WWC2 (11732394_at) / RFU HLA-DPB1 (11760878_x_at) / Fold change /veh HLA-DPB1 (11760878_x_at) / RFU SPINT1 (11716480_a_at) / Fold change /veh SPINT1 (11716480_a_at) / RFU GAP43 (11754022_s_at) / Fold change /veh GAP43 (11754022_s_at) / RFU A4GNT (11735810_at) / Fold change /veh A4GNT (11735810_at) / RFU PRB3 (11715151_x_at) / Fold change /veh PRB3 (11715151_x_at) / RFU TUBB4B (11761932_at) / Fold change /veh TUBB4B (11761932_at) / RFU CAPN14 (11732068_a_at) / Fold change /veh CAPN14 (11732068_a_at) / RFU TMCC2 (11721928_a_at) / Fold change /veh TMCC2 (11721928_a_at) / RFU IRGQ (11745062_a_at) / Fold change /veh IRGQ (11745062_a_at) / RFU FAM174B (11720279_a_at) / Fold change /veh FAM174B (11720279_a_at) / RFU TMPRSS4 (11748680_a_at) / Fold change /veh TMPRSS4 (11748680_a_at) / RFU FAM212B (11763350_a_at) / Fold change /veh FAM212B (11763350_a_at) / RFU PLEKHG5 (11743358_a_at) / Fold change /veh PLEKHG5 (11743358_a_at) / RFU ZSCAN30 (11745921_a_at) / Fold change /veh ZSCAN30 (11745921_a_at) / RFU CMKLR1 (11741424_a_at) / Fold change /veh CMKLR1 (11741424_a_at) / RFU LOC101060620 /// MAPK8IP1 (11723275_at) / Fold change /veh LOC101060620 /// MAPK8IP1 (11723275_at) / RFU SPTSSB (11747773_x_at) / Fold change /veh SPTSSB (11747773_x_at) / RFU PRSS12 (11739890_at) / Fold change /veh PRSS12 (11739890_at) / RFU BIN1 (11741810_x_at) / Fold change /veh BIN1 (11741810_x_at) / RFU WNT11 (11732464_a_at) / Fold change /veh WNT11 (11732464_a_at) / RFU C10orf10 (11716521_a_at) / Fold change /veh C10orf10 (11716521_a_at) / RFU C5orf56 (11738089_at) / Fold change /veh C5orf56 (11738089_at) / RFU CYB561 (11721691_x_at) / Fold change /veh CYB561 (11721691_x_at) / RFU ANKRD19P (11752326_a_at) / Fold change /veh ANKRD19P (11752326_a_at) / RFU OR2T12 /// OR2T33 /// OR2T8 (11738714_s_at) / Fold change /veh OR2T12 /// OR2T33 /// OR2T8 (11738714_s_at) / RFU VCAN (11748164_a_at) / Fold change /veh VCAN (11748164_a_at) / RFU JSRP1 (11732532_at) / Fold change /veh JSRP1 (11732532_at) / RFU KRTAP10-11 (11738290_x_at) / Fold change /veh KRTAP10-11 (11738290_x_at) / RFU MYO3A (11730013_a_at) / Fold change /veh MYO3A (11730013_a_at) / RFU EBF3 (11725865_a_at) / Fold change /veh EBF3 (11725865_a_at) / RFU CAMK2N1 (11719241_x_at) / Fold change /veh CAMK2N1 (11719241_x_at) / RFU C5orf56 (11738088_a_at) / Fold change /veh C5orf56 (11738088_a_at) / RFU OLFML3 (11715873_a_at) / Fold change /veh OLFML3 (11715873_a_at) / RFU LOC100653217 /// NTM (11731650_a_at) / Fold change /veh LOC100653217 /// NTM (11731650_a_at) / RFU MAPK11 (11762145_a_at) / Fold change /veh MAPK11 (11762145_a_at) / RFU FIZ1 (11724087_x_at) / Fold change /veh FIZ1 (11724087_x_at) / RFU OASL (11726364_x_at) / Fold change /veh OASL (11726364_x_at) / RFU SOX15 (11748057_x_at) / Fold change /veh SOX15 (11748057_x_at) / RFU CD79A (11719716_a_at) / Fold change /veh CD79A (11719716_a_at) / RFU HIST1H1D (11736915_at) / Fold change /veh HIST1H1D (11736915_at) / RFU CASKIN2 (11723855_a_at) / Fold change /veh CASKIN2 (11723855_a_at) / RFU LOC730098 (11760151_x_at) / Fold change /veh LOC730098 (11760151_x_at) / RFU OR4N2 (11742367_at) / Fold change /veh OR4N2 (11742367_at) / RFU PRRT2 (11749266_a_at) / Fold change /veh PRRT2 (11749266_a_at) / RFU SNX32 (11753110_a_at) / Fold change /veh SNX32 (11753110_a_at) / RFU CDHR5 (11726645_a_at) / Fold change /veh CDHR5 (11726645_a_at) / RFU RCAN1 (11760418_a_at) / Fold change /veh RCAN1 (11760418_a_at) / RFU FAM167A (11723789_a_at) / Fold change /veh FAM167A (11723789_a_at) / RFU FAM26E (11764081_at) / Fold change /veh FAM26E (11764081_at) / RFU ISYNA1 (11749810_s_at) / Fold change /veh ISYNA1 (11749810_s_at) / RFU ACY1 (11761880_at) / Fold change /veh ACY1 (11761880_at) / RFU 11764098_at / Fold change /veh 11764098_at / RFU SAMD14 (11745864_x_at) / Fold change /veh SAMD14 (11745864_x_at) / RFU NPB (11741838_a_at) / Fold change /veh NPB (11741838_a_at) / RFU TMPRSS6 (11731388_a_at) / Fold change /veh TMPRSS6 (11731388_a_at) / RFU KRTAP10-2 (11738614_at) / Fold change /veh KRTAP10-2 (11738614_at) / RFU ARHGAP8 /// PRR5-ARHGAP8 (11727945_x_at) / Fold change /veh ARHGAP8 /// PRR5-ARHGAP8 (11727945_x_at) / RFU KRTAP5-7 /// NADSYN1 (11734609_at) / Fold change /veh KRTAP5-7 /// NADSYN1 (11734609_at) / RFU RASL12 (11751679_a_at) / Fold change /veh RASL12 (11751679_a_at) / RFU CDKN2B (11736163_a_at) / Fold change /veh CDKN2B (11736163_a_at) / RFU PRF1 (11729649_at) / Fold change /veh PRF1 (11729649_at) / RFU, ZNF638 /// ZNF638-IT1 / Fold change vs veh, ZNF638 /// ZNF638-IT1 / RFU, PANK3 / Fold change vs veh, PANK3 / RFU, SH3YL1 / Fold change vs veh, SH3YL1 / RFU, ZEB2 / Fold change vs veh, ZEB2 / RFU, NRIP1 / Fold change vs veh, NRIP1 / RFU, PTTG1IP / Fold change vs veh, PTTG1IP / RFU, CAPN2 / Fold change vs veh, CAPN2 / RFU, MED14 / Fold change vs veh, MED14 / RFU, SNORA58 / Fold change vs veh, SNORA58 / RFU, C1orf63 / Fold change vs veh, C1orf63 / RFU, LRRFIP1 / Fold change vs veh, LRRFIP1 / RFU, NDUFAF7 / Fold change vs veh, NDUFAF7 / RFU, SLC12A2 / Fold change vs veh, SLC12A2 / RFU, IBTK / Fold change vs veh, IBTK / RFU, ESF1 / Fold change vs veh, ESF1 / Fold change vs veh, TMEM50B / RFU, TAOK1 / Fold change vs veh, TAOK1 / RFU, ACBD3 / Fold change vs veh, ACBD3 / RFU, TMA16 / Fold change vs veh, TMA16 / RFU, RWDD3 / Fold change vs veh, RWDD3 / RFU, BCAT1 / Fold change vs veh, BCAT1 / RFU, EDEM3 / Fold change vs veh, EDEM3 / RFU, TMEM33 / Fold change vs veh, TMEM33 / RFU, WDR75 / Fold change vs veh, WDR75 / RFU, AHCTF1 / Fold change vs veh, AHCTF1 / RFU, TFRC / Fold change vs veh, TFRC / RFU, ZDHHC17 / Fold change vs veh, ZDHHC17 / RFU, NOM1 / Fold change vs veh, NOM1 / RFU, ARL8B / Fold change vs veh, ARL8B / RFU, ZBTB11 / Fold change vs veh, ZBTB11 / RFU, TAMM41 / Fold change vs veh, TAMM41 / RFU, KIAA1704 /// LOC100996395 / Fold change vs veh, KIAA1704 /// LOC100996395 / RFU, ING1 / Fold change vs veh, ING1 / RFU, TRMT61B / Fold change vs veh, TRMT61B / RFU, FUBP3 / Fold change vs veh, FUBP3 / RFU, TP53 / Fold change vs veh, TP53 / RFU, TNKS2 / Fold change vs veh, TNKS2 / RFU, ZFP14 / Fold change vs veh, ZFP14 / RFU, ACTR2 / Fold change vs veh, ACTR2 / RFU, PPP3R1 / Fold change vs veh, PPP3R1 / RFU, PIK3R1 / Fold change vs veh, PIK3R1 / RFU, HNRNPA1 / Fold change vs veh, HNRNPA1 / RFU, RNF170 / Fold change vs veh, RNF170 / RFU, ZNF28 / Fold change vs veh, ZNF28 / RFU, RNGTT / Fold change vs veh, RNGTT / RFU, OGT / Fold change vs veh, OGT / RFU, BRD1 / Fold change vs veh, BRD1 / RFU, MARS / Fold change vs veh, MARS / RFU, ZNF655 / Fold change vs veh, ZNF655 / RFU, FAHD1 / Fold change vs veh, FAHD1 / RFU, BDP1 / Fold change vs veh, BDP1 / RFU, LRRCC1 / Fold change vs veh, LRRCC1 / RFU, ARID1A / Fold change vs veh, ARID1A / RFU, ZNF146 / Fold change vs veh, ZNF146 / RFU, ZNF330 / Fold change vs veh, ZNF330 / RFU, GPN3 / Fold change vs veh, GPN3 / RFU, C9orf123 / Fold change vs veh, C9orf123 / RFU, N4BP2L2 / Fold change vs veh, N4BP2L2 / RFU, ARFIP1 / Fold change vs veh, ARFIP1 / RFU, FAM179B / Fold change vs veh, FAM179B / RFU, BCL10 / Fold change vs veh, BCL10 / RFU, UHRF1BP1L / Fold change vs veh, UHRF1BP1L / RFU, BET1 / Fold change vs veh, BET1 / RFU, CNOT2 / Fold change vs veh, CNOT2 / RFU, ZNF268 / Fold change vs veh, ZNF268 / Fold change vs veh, ZNF507 / RFU, DGCR2 / Fold change vs veh, DGCR2 / RFU, WDSUB1 / Fold change vs veh, WDSUB1 / Fold change vs veh, HSP90B1 /// MIR3652 / RFU, ADSS / Fold change vs veh, ADSS / RFU, GK / Fold change vs veh, GK / RFU, ZNF148 / Fold change vs veh, ZNF148 / RFU, TAF9 / Fold change vs veh, TAF9 / RFU, SLC1A5 / Fold change vs veh, SLC1A5 / RFU, SLMO2 / Fold change vs veh, SLMO2 / RFU, ABCC4 / Fold change vs veh, ABCC4 / RFU, LOC101060439 /// RAP1B / Fold change vs veh, LOC101060439 /// RAP1B / RFU, RFX7 / Fold change vs veh, RFX7 / RFU, GTPBP10 / Fold change vs veh, GTPBP10 / RFU, CNEP1R1 / Fold change vs veh, CNEP1R1 / RFU, BIVM-ERCC5 /// ERCC5 / Fold change vs veh, BIVM-ERCC5 /// ERCC5 / RFU, ILF3 / Fold change vs veh, ILF3 / RFU 11762660_at / Fold change /veh 11762660_at / RFU VCAN (11757783_s_at) / Fold change /veh VCAN (11757783_s_at) / RFU DDX43 (11728927_at) / Fold change /veh DDX43 (11728927_at) / RFU KRT8 (11758188_x_at) / Fold change /veh KRT8 (11758188_x_at) / RFU NKD1 (11759106_at) / Fold change /veh NKD1 (11759106_at) / RFU SRD5A1 (11742802_a_at) / Fold change /veh SRD5A1 (11742802_a_at) / RFU TPSAB1 /// TPSB2 (11721975_s_at) / Fold change /veh TPSAB1 /// TPSB2 (11721975_s_at) / RFU GSTM3 (11746129_a_at) / Fold change /veh GSTM3 (11746129_a_at) / RFU IL23R (11737362_x_at) / Fold change /veh IL23R (11737362_x_at) / RFU TMEM51 (11727254_a_at) / Fold change /veh TMEM51 (11727254_a_at) / RFU PIWIL2 (11732686_x_at) / Fold change /veh PIWIL2 (11732686_x_at) / RFU ORM1 (11744905_x_at) / Fold change /veh ORM1 (11744905_x_at) / RFU CCDC152 (11743942_at) / Fold change /veh CCDC152 (11743942_at) / RFU ECM1 (11717891_a_at) / Fold change /veh ECM1 (11717891_a_at) / RFU IL23R (11748794_a_at) / Fold change /veh IL23R (11748794_a_at) / RFU TNFAIP8L3 (11732012_x_at) / Fold change /veh TNFAIP8L3 (11732012_x_at) / RFU MBOAT4 (11741988_at) / Fold change /veh MBOAT4 (11741988_at) / RFU 11764193_at / Fold change /veh 11764193_at / RFU TMEM53 (11763286_at) / Fold change /veh TMEM53 (11763286_at) / RFU MAGEB2 (11727129_at) / Fold change /veh MAGEB2 (11727129_at) / RFU TMEM200A (11744735_a_at) / Fold change /veh TMEM200A (11744735_a_at) / RFU CCDC152 (11751479_a_at) / Fold change /veh CCDC152 (11751479_a_at) / RFU FAM211A (11726209_a_at) / Fold change /veh FAM211A (11726209_a_at) / RFU RGS16 (11746705_a_at) / Fold change /veh RGS16 (11746705_a_at) / RFU VCAN (11755009_s_at) / Fold change /veh VCAN (11755009_s_at) / RFU RHOB (11743442_s_at) / Fold change /veh RHOB (11743442_s_at) / RFU RGS16 (11720943_a_at) / Fold change /veh RGS16 (11720943_a_at) / RFU RGS16 (11720944_at) / Fold change /veh RGS16 (11720944_at) / RFU, VPS4B / Fold change vs veh, VPS4B / RFU, CREB1 / Fold change vs veh, CREB1 / RFU, DNAJC13 / Fold change vs veh, DNAJC13 / RFU, GNAQ / Fold change vs veh, GNAQ / RFU, CDK5R1 / Fold change vs veh, CDK5R1 / RFU, ZRANB3 / Fold change vs veh, ZRANB3 / RFU, CUL4A / Fold change vs veh, CUL4A / RFU, CCNY / Fold change vs veh, CCNY / RFU, UFL1 / Fold change vs veh, UFL1 / RFU, COG3 / Fold change vs veh, COG3 / RFU, DIAPH2 / Fold change vs veh, DIAPH2 / RFU, SKA2 / Fold change vs veh, SKA2 / RFU, AFF3 / Fold change vs veh, AFF3 / RFU, LMF1 / Fold change vs veh, LMF1 / RFU, IPO11 / Fold change vs veh, IPO11 / RFU, DFFB / Fold change vs veh, DFFB / RFU, FOXP1 / Fold change vs veh, FOXP1 / RFU, CARD8 / Fold change vs veh, CARD8 / RFU, STRN3 / Fold change vs veh, STRN3 / RFU, ADK / Fold change vs veh, ADK / RFU, RASSF2 / Fold change vs veh, RASSF2 / RFU, WIPF1 / Fold change vs veh, WIPF1 / RFU, LARP1B / Fold change vs veh, LARP1B / RFU, RASA1 / Fold change vs veh, RASA1 / RFU, RB1 / Fold change vs veh, RB1 / RFU, PPFIA1 / Fold change vs veh, PPFIA1 / RFU, MAT2A / Fold change vs veh, MAT2A / RFU, CCT5 / Fold change vs veh, CCT5 / RFU, WDR92 / Fold change vs veh, WDR92 / RFU, CUX1 / Fold change vs veh, CUX1 / RFU, TTC7A / Fold change vs veh, TTC7A / RFU, TMEM135 / Fold change vs veh, TMEM135 / RFU, DEPTOR / Fold change vs veh, DEPTOR / RFU, CPM / Fold change vs veh, CPM / RFU, DNAJB6 / Fold change vs veh, DNAJB6 / RFU, CACNA2D3 / Fold change vs veh, CACNA2D3 / RFU, DTX4 / Fold change vs veh, DTX4 / RFU, TFCP2 / Fold change vs veh, TFCP2 / RFU, GMCL1 /// GMCL1P1 / Fold change vs veh, GMCL1 /// GMCL1P1 / RFU, AEBP2 / Fold change vs veh, AEBP2 / RFU, SNHG1 /// SNORD22 /// SNORD25 /// SNORD26 /// SNORD27 /// SNORD28 /// SNORD29 /// SNORD31 / Fold change vs veh, SNHG1 /// SNORD22 /// SNORD25 /// SNORD26 /// SNORD27 /// SNORD28 /// SNORD29 /// SNORD31 / Fold change (Aza/veh), C12orf56 (ProbeSet 11735607_a_at) / Fold change (ACY-1035/veh), C12orf56 (ProbeSet 11735607_a_at) / Fold change (Aza/veh), FGFR1OP (ProbeSet 11751329_s_at) / Fold change (ACY-1035/veh), FGFR1OP (ProbeSet 11751329_s_at) / Fold change (Aza/veh), VPS36 (ProbeSet 11739960_a_at) / Fold change (ACY-1035/veh), VPS36 (ProbeSet 11739960_a_at) / RFU SYPL1 (11715823_x_at) / Fold change /veh SYPL1 (11715823_x_at) / RFU IGFBP7 (11715501_s_at) / Fold change /veh IGFBP7 (11715501_s_at) / RFU REEP3 (11722064_at) / Fold change /veh REEP3 (11722064_at) / RFU IGLL1 (11728026_x_at) / Fold change /veh IGLL1 (11728026_x_at): dose or concentration left out as unconfirmed
Conditions: ProbeSet 11763895_x_at; LIST B

For `Nc1ncn([C@@H]2O[C@H](CO)[C@@H](O)[C@H]2O)c(=O)n1` [azacitidine], the “Fold change vs veh, SNORA58” value was 1.03.

From publication PMC5218480 (PLoS ONE, 2017)
